Results: patent US20230189864A1, “NON-THERAPEUTIC METHODS FOR MAINTAINING A HEALTHY BODY WEIGHT OR LOSING BODY WEIGHT” (FrieslandCampina Nederland B.V., priority 2019, published 2023)

Tests used:
[1] = addition to infant formula; cited from earlier work
[2] = test system: pooled fecal microbiota from healthy lean subjects; assay: TIM-2 in vitro fermentation model, SCFA analysis; type: cell-based, human
Description: The in vitro fermentation studies were done using the TIM-2 model. This is a validated, dynamic, computer-controlled model that simulates the human colon, mimicking body temperature, lumen pH, absorption of water and microbial metabolites through a semipermeable membrane inside the model, mixing and transporting the intestinal contents with peristaltic movements, using an anaerobic microbiota from human origin, it corresponds basically to the model as described in Minekus, M., et al. Appl. Microbiol. Biotechnol. 1999 53, 108 --- 114. doi: 10.1007/ s002530051622 and Kortman et al., Frontiers in Microbiology 2016, 6, 1481.
Characteristics of the movements of the contents in the TIM-2 system were simulated using an increase of the pH and peristaltic movements of the contents in the system using peristaltic pumps as described in Minekus, M (1998. Development and validation of a dynamic model of the gastrointestinal tract. PhD thesis, Delft University of Technology, The Netherlands).
SCFA analysis was performed at Brightlabs B.V., Venlo, The Netherlands), according to (Sáyago-Ayerdi SG, et al. Food Research International, E-pub date 13 Dec. 2017; Sayago Ayerdi et al Food Research International 118 (2019) 89-95).
Pooled fecal microbiota samples from 11 healthy lean subjects not suffering from any metabolic disease was used to inoculate the TIM-2 in vitro fermentation model.
The fecal microbiota was freshly sampled in and stored directly (within 2 h) on ice and under anaerobic conditions. Next, in an anaerobic cabinet, samples were diluted 1:1 with dialysate, and pooled at approximately equal weight, after which glycerol was added (to a final concentration of 12-13 w/w) and aliquots (30 ml/tube) were frozen in liquid nitrogen and stored at -80 ℃. […]
Samples (1 mL) were taken for SCFA analysis after 1, 2, 4, 6, 8 and 24 h after test product insertion; cumulative absolute amounts of SCFA were determined. […] The acids were detected using suppressed conductivity detection. […]

[3] = overweight men, cited from earlier work
[4] = TIM-2, microbiota of lean subjects (18.5 kg/m^2 ≤ BMI < 25 kg/m^2), 8-24 h, represents distal colon, single shot 7.5 g 2′-FL (± 7.5 g RS)
[5] = administered in the distal part of the colon

Compound	safety and tolerance [1]	SCFA levels and in particular acetate levels in the distal colon (in words) ([2]; TIM-2, lean subjects' microbiota)	Acetate produced between 8 and 24 hours after insertion of the test product [2, 4] [mmol]	SCFA produced between 8 and 24 hours after insertion of the test product [2, 4] [mmol]	circulating plasma concentrations of peptide YY (PYY) [3, 5]	fat oxidation [3, 5]	energy expenditure or substrate oxidation ([3]; administered in the proximal colon)
2′-Fucosyllactose [2′-FL w/o RS]	safe and well-tolerated	increased	12	21			
CC(=O)[O-].[Na+] [sodium acetate]					significantly increased	significantly increased	no effect
